What is called Ki is the dissociation constant of the complex between target and ligand, obtained from inhibition or displacement.

In the assay the target is T1, Mcl-1 (Homo sapiens, UniProt Q07820).
T1 construct: gene MCL1; recombinant GST-Mcl-1
As to the kind of experiment: fluorescence polarization with recombinant GST-Mcl-1; supported by GST pull-down showing disruption of Mcl-1/Bak. Format: binding.

Each structure is given as a SMILES string.

T1 sequence (Q07820 whole entry): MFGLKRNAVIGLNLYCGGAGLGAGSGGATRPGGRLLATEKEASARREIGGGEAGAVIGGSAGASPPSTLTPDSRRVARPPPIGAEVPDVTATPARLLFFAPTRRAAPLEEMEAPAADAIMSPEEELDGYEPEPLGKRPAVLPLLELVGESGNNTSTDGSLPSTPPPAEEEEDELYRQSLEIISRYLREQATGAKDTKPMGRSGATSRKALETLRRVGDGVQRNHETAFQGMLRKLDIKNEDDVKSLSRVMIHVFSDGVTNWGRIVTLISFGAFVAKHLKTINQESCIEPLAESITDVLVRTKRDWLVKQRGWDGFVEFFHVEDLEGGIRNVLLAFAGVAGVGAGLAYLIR

Consider `Cc1cc(Cl)ccc1NC(=O)C(=O)C(C(=O)c1ccc2ccccc2c1)C1OC(=O)c2ccccc21` (stereo not shown) [MI-238], for which the Ki was determined as 0.45 ± 0.05 µM.

The record behind these values is publication PMC9854187, “A novel Mcl-1 inhibitor synergizes with venetoclax to induce apoptosis in cancer cells” (Molecular Medicine, 2023).
